Ki data for 30 molecules are collected here from US7981896B2 (Athersys, Inc., priority 2006, dated 2011).

Bounds are passed on as bounds.

In the assay the target is T1, human histamine H3 receptor (Homo sapiens, UniProt Q9Y5N1).
T1 construct: endogenous in cells; host or cells: HT1080-Gqαi5 RAGE clone (RAGE-H3), human fibrosarcoma line; integrated RAGE vector pFG8-HH3 supplies exon 1, the cell's own gene supplies the other exons
T1 sequence (Q9Y5N1 whole entry): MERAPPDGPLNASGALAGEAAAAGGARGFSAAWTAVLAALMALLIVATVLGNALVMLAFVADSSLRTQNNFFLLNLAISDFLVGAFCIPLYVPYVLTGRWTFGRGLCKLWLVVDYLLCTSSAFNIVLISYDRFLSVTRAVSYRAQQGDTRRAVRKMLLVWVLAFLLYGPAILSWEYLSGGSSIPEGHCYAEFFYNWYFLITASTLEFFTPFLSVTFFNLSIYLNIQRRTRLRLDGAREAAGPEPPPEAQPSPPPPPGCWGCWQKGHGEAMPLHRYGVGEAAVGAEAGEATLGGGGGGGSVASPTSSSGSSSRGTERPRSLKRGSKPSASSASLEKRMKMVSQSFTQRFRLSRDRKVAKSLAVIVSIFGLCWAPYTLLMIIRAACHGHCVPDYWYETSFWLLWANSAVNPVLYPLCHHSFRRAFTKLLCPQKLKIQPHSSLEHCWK
Nature of the assay: Competition radioligand binding assay with [125I]iodoproxyfan on membranes of RAGE-H3 (HT1080-Gqαi5) cells expressing human H3 receptor. The settings on record: ~0.15 nM [125I]iodoproxyfan, 1.5 hrs at room temperature, head does not name the quantity (apparent Ki by Cheng-Prussof). As for the experimental part:
Representative compounds of the present invention that were prepared by the procedures of Examples 1-83 were evaluated in binding assays against cells expressing human H3 receptor by the following procedure.
[^125I]iodoproxyfan (2000 Ci/mmol) was obtained from Amersham Bioscience (Piscataway, N.J.). All other chemicals were either from Sigma-Aldrich (St. Louis, Mo.) or Tocris Cookson Inc. (Ellisville, Mo.).
The human histamine H3 receptor was stably expressed in HT1080 cells containing the chimeric G-protein, Gq[…]i5 (Coward et al., Anal Biochem 1999; 270:242-8). HT1080-Gqαi5 cells were grown in alpha-modified MEM containing 10% fetal bovine serum and 7 μg/ml blasticidin at 37° C. in 5% CO2/95% atmosphere. Cells (4.8×10^9) were irradiated with 50 rads from a ^137Cs source and the pFG8-HH3 RAGE (Random Activation of Gene Expression; see Harrington et al., Nature Biotechnology. 2001; 19:440-45) vector was subsequently integrated into the cells via electroporation (250V, 600 μF, 50Ω). The RAGE vector pFG8-HH3 contained cDNA sequence coding for the first exon (83 amino acids) of human H3 receptor. After electroporation, cells were plated in T75 flasks and grown in alpha-modified MEM. The culture medium was replaced 48 hrs after electroporation with alpha-modified MEM, 10% fetal bovine serum, 500 μg/ml hygromycin B and 3 μg/ml puromycin. Medium was replaced every four days during cell expansion. To identify RAGE activated cells expressing the H3 receptor, pools of approximately 10,000 colonies (5×10^7-1.5×10^8 cells total) were screened by PCR for the desired gene product (using primers specific to the RAGE vector and exon 2 of the H3 receptor). […] Positive 100 cells/well pools were identified by PCR, confirmed by sequencing, and subsequently subcloned to 0.8 cells/well. Once clones expressing the H3 receptor were identified by PCR analysis, assays (FLIPR or radioligand binding) were performed to confirm that the activated gene produced functional protein. The protein expression in the initial clones obtained from the RAGE library was increased by growth in the presence of methotrexate. Since the integrated RAGE vector contains the DHFR gene, such treatment selects for cells that have amplified the genetic locus containing the RAGE insert. Subclones obtained after methotrexate amplification were tested for functional activity in FLIPR assays to identify the clone that was most suitable for HTS. The final HT1080-Gqαi5 RAGE clone (RAGE-H3) expressing the human histamine H3 receptor was grown in alpha-modified MEM containing 10% fetal bovine serum, 3 μg/ml puromycin, 500 μg/ml hygromycin B, 3.2 μM methotrexate at 37° C. in 5% CO2/95% atmosphere.
RAGE-H3 cells (10^9) were washed twice with cold PBS, scraped off the plates, and centrifuged at 1000×g for 5 minutes. Cells were resuspended in ice-cold 10 mM Tris HCl, pH 7.4, containing 5 mM EDTA and protease inhibitor cocktail tablets (Roche Molecular Biochemicals). After incubating on ice for 10 min, the cells were homogenized with a dounce homogenizer or a polytron tissue grinder, and centrifuged at 1000×g for 10 min at 4° C. The resulting supernatant was centrifuged at 32,000×g for 30 min at 4° C. The membrane pellets were resuspended in 50 mM Tris HCl, pH 7.4, and stored at −80° C. until use. Protein concentration was determined by the Bradford method (Bio-Rad Laboratories, CA).
Binding assays were carried out in 96-well polypropylene plates in 50 mM Tris HCl, pH 7.4, containing 1 mM EDTA. Reaction mixtures contained 100 μl of membrane suspension, 50 μl of 4% DMSO, and 50 μl of increasing amounts of [^125I]iodoproxyfan (final concentration 0.0005-1.8 nM for human H3 receptor saturation binding assay). Nonspecific binding was defined by adding 10 μM clobenpropit to the reaction mixtures. […]
Regarding `Cc1nn(-c2ccc(OCCCN3CCCC3)cc2)c2c1CCc1ccccc1-2` [Example 1, 3-Methyl-1-[4-(3-pyrrolidin-1-ylpropoxy)phenyl]-4,5-dihydro-1H-benzo[g]indazole], the Ki was less than 10 nM.
Next, `Cc1cc(OCCCN2CCCCC2)ccc1-n1nc(C(C)C)cc1C(C)C` [Example 62, 3,5-Diisopropyl-1-[2-methyl-4-(3-piperidin-1-ylpropoxy)phenyl]-1H-pyrazole]: less than 10 nM.
Next, `Cc1nn(-c2ccc(OCCCN3CCCC3)cc2)c(C)c1C` [Example 36, 3,4,5-Trimethyl-1-[4-(3-pyrrolidin-1-ylpropoxy)phenyl]-1H-pyrazole]: less than 10 nM; `Cc1cc(C(=O)NC2CCCCC2)n(-c2ccc(OCCCN3CCC[C@H]3C)cc2)n1` [Example 74, 5-Methyl-2-{4-[3-(2R-methylpyrrolidin-1-yl)propoxy]phenyl}-2H-pyrazole-3-carboxylic acid cyclohexylamide]: less than 1 nM; “3-Phenyl-1-[4-(3-pyrrolidin-1-ylpropoxy)phenyl]-4,5,6,7-tetrahydro-1H-indazole [Example 43]”: less than 1000 nM.
Next, `Cc1cc(C(=O)NC2CCCCC2)n(-c2ccc(OCCCN3CCCC3)cc2)n1` [Example 73, 5-Methyl-2-[4-(3-pyrrolidin-1-yl-propoxy)-phenyl]-2H-pyrazole-3-carboxylic acid cyclohexylamide]: less than 1 nM; `Cc1c2c(nn1-c1ccc(OCCCN3CCCC3)cc1)CCCC2` [Example 56, 3-Methyl-2-[4-(3-pyrrolidin-1-yl-propoxy)-phenyl]-4,5,6,7-tetrahydro-2H-indazole]: less than 1 nM; `CCc1cc(CC)n(-c2ccc(OCCCN3CCCCC3)cc2)n1` [Example 22, 3,5-Diethyl-1-[4-(3-piperidin-1-ylpropoxy)phenyl]-1H-pyrazole]: less than 10 nM.
On to `FC(F)(F)c1cc(/C=C/c2ccccc2)n(-c2ccc(OCCCN3CCCC3)cc2)n1` [Example 4, 1-[4-(3-Pyrrolidin-1-ylpropoxy)phenyl]-5-styryl-3-trifluoromethyl-1H-pyrazole], for which the Ki is less than 100 nM.
Take `Cc1cc(CC(C)C)nn1-c1ccc(OCCCN2CCCC2)cc1` [Example 31]: the Ki is less than 10 nM.
Take “3-Methyl-1-[4-(3-piperidin-1-yl-propoxy)-phenyl]-1,4,5,6-tetrahydro-cyclopentapyrazole [Example 59]”: the Ki is less than 10 nM.
Next, `Cc1cc(C(=O)NC2CCCCC2)n(-c2ccc(OCC3CCCN4CCCCC34)cc2)n1` (stereo not drawn) [Example 82, 5-Methyl-2-[4-(octahydroquinolizin-1-ylmethoxy)phenyl]-2H-pyrazole-3-carboxylic acid cyclohexylamide]: greater than 10000 nM.
With `Cc1c2c(nn1-c1ccc(OCCCN3CCCC3)cc1)CCC2` [Example 58, 3-Methyl-2-[4-(3-pyrrolidin-1-yl-propoxy)-phenyl]-2,4,5,6-tetrahydro-cyclopentapyrazole] the figure was less than 100 nM.
Next, `CN(C)C1CCN(CCCOc2ccc(-n3nc(C(F)(F)F)cc3-c3ccccc3)cc2)C1` (stereo not drawn) [Example 52, Dimethyl-(1-{3-[4-(5-phenyl-3-trifluoromethyl-pyrazol-1-yl)-phenoxy]-propyl}-pyrrolidin-3-yl)-amine]: less than 10000 nM.
Take `Cc1cc(C(=O)NC2CCCCC2)n(-c2ccc(OC3CCN(C(C)C)CC3)cc2)n1` [Example 12, 2-[4-(1-Isopropylpiperidin-4-yloxy)phenyl]-5-methyl-2H-pyrazole-3-carboxylic acid cyclohexylamide]: the Ki is less than 10 nM.
With `Cc1cc(C(=O)Nc2ccccc2)n(-c2ccc(OCCCN3CCCC3)cc2)n1` [Example 81, 5-Methyl-2-[4-(3-pyrrolidin-1-ylpropoxy)phenyl]-2H-pyrazole-3-carboxylic acid phenylamide] the figure was less than 1 nM.
As for `CCCCc1c(C)nn(-c2ccc(OCCCN3CCCC3)cc2)c1C` [Example 38, 4-Butyl-3,5-dimethyl-1-[4-(3-pyrrolidin-1-ylpropoxy)phenyl]-1H-pyrazole], the Ki is less than 10 nM.
Consider `Cc1cc(C(=O)N2CCCC2)n(-c2ccc(OCCCN3CCCC3)cc2)n1` [Example 78, {5-Methyl-2-[4-(3-pyrrolidin-1-ylpropoxy)phenyl]-2H-pyrazol-3-yl}pyrrolidin-1-ylmethanone], for which the Ki was less than 10 nM.
For the molecule `FC(F)(F)c1cc(-c2ccccc2)n(-c2ccc(OCCCN3CCOCC3)cc2)n1` [Example 53, 4-{3-[4-(5-Phenyl-3-trifluoromethyl-pyrazol-1-yl)-phenoxy]-propyl}-morpholine], the Ki is less than 1000 nM.
On to `CC(C)c1cc(C(C)C)n(-c2ccc(OC3CCN(C4CCC4)CC3)cc2)n1` [Example 32, 1-Cyclobutyl-4-[4-(3,5-diisopropylpyrazol-1-yl)phenoxy]piperidine], for which the Ki is less than 10 nM.
Next, `Cc1c2c(nn1-c1ccc(OCCCN3CCCC3)cc1)[C@H]1CCCC[C@@H]1CC2` (relative stereo) [Example 6, 3-Methyl-2-[4-(3-pyrrolidin-1-ylpropoxy)phenyl]-4,5,5a,6,7,8,9,9a-octahydro-2H-benzo[g]indazole]: less than 10 nM; `CCc1c(C)nn(-c2ccc(OCCCN3CCCC3)cc2)c1C` [Example 37, 4-Ethyl-3,5-dimethyl-1-[4-(3-pyrrolidin-1-ylpropoxy)phenyl]-1H-pyrazole]: less than 10 nM.
With `Cc1cc(C(C)(C)C)nn1-c1ccc(OCCCN2CCCC2)cc1` [Example 26, 3-tert-Butyl-5-methyl-1-[4-(3-pyrrolidin-1-ylpropoxy)-phenyl]-1H-pyrazole] the figure was less than 10 nM; with `Cc1nn(-c2ccc(OCCCN3CCC[C@H]3C)cc2)c2c1CCc1ccccc1-2` [Example 2, 3-Methyl-1-{4-[3-(2R-methylpyrrolidin-1-yl)propoxy]phenyl}-4,5-dihydro-1H-benzo[g]indazole], less than 10 nM; with `Cc1cc(C(=O)NC2CCC2)n(-c2ccc(OCCCN3CCCC3)cc2)n1` [Example 80, 5-Methyl-2-[4-(3-pyrrolidin-1-ylpropoxy)phenyl]-2H-pyrazole-3-carboxylic acid cyclobutylamide], less than 1 nM.
Next, `Cc1cc(C(=O)NC2CCCCC2)n(-c2ccc(OC3CCN(C4CCCC4)CC3)cc2)n1` [Example 10, 2-[4-(1-Cyclopentyl-piperidin-4-yloxy)phenyl]-5-methyl-2H-pyrazole-3-carboxylic acid cyclohexylamide]: less than 10 nM.
In the case of `Cc1nn(-c2ccc(OCCCN3CCOCC3)cc2)c2c1CCc1ccccc1-2` [Example 3, 3-Methyl-1-[4-(3-morpholin-1-ylpropoxy)phenyl]-4,5-dihydro-1H-benzo[g]indazole], the Ki was less than 10 nM.
With `Cc1cc(C(C)(C)C)n(-c2ccc(OCCCN3CCCCC3)cc2)n1` [Example 34, 5-tert-Butyl-3-methyl-1-[4-(3-piperidin-1-ylpropoxy)-phenyl]-1H-pyrazole] the figure was less than 100 nM; with `Cc1cc(C(C)(C)C)nn1-c1ccc(OCCCN2CCCCC2)cc1` [Example 27, 3-tert-Butyl-5-methyl-1-[4-(3-piperidin-1-ylpropoxy)-phenyl]-1H-pyrazole], less than 10 nM.
`FC(F)(F)c1cc(-c2cc3ccccc3o2)n(-c2ccc(OCCCN3CCCC3)cc2)n1` [Example 63, 5-Benzofuran-2-yl-1-[4-(3-pyrrolidin-1-ylpropoxy)phenyl]-3-trifluoromethyl-1H-pyrazole]: the Ki is less than 100 nM.
